Converted amounts (≈) assume the structure as drawn. “Also recorded” adds a separate entry of the source. Like-named read-outs stand apart in the source and are kept apart here.
Assays:
[1] = tested on: Staphylococcus aureus Rosenbach (ATCC 25923); assay: Antibacterial microbroth dilution MIC/MBC against S. aureus; format: cell-based; details: S. aureus Rosenbach ATCC 25923; for Relative antibacterial activity compared with another compound: 1 versus 2, 9 versus 8; for MIC90 / MBC90 (minimal bactericidal concentration) / MBC / MIC: Staphylococcus aureus; for MIC90 / MBC90 (minimal bactericidal concentration) / MBC: ATCC25923; for MBC90 (minimal bactericidal concentration): read-out: MBC (IC90) / minimal bactericidal concentration (MBC90); for MBC: treated culture transferred to new media, read-out: MBC90 [(μM) mean ± SD]; for MIC: ATCC25923, 24 h
Protocol: The minimum inhibition concentration (MIC) and the minimum bactericidal/fungicidal concentration (MBC/MFC) were carried out using the microbroth dilution method according to the Clinical Laboratory Standards Institute (CLSI) guidelines, with some modifications. […] The tested compounds were then incubated together with bacterial cells at 37 °C for 24 h and with fungal spores at 25 °C for 72 h, respectively. The OD600 measurements were subsequentially carried out to evaluate the inhibitory effect of the compounds. To further determine the bactericidal and fungicidal effects of the compounds, 5 µL of the treated culture was transferred onto new media microplates. The plates were incubated under the same condition, followed by the OD600 measurement. […] The cells were then treated with the compounds for 72 h at 37 °C in the presence of 5% CO2. Any Cytotoxic effect was detected with PrestoBlue™ cell viability reagent (ThermoFisher Scientific, Waltham, MA, USA). The cells were read with a fluorescence reading at an excitation of 560 nm and an emission 590 nm. Standard inhibitors, gentamicin (Gibco, Waltham, MA, USA), amphotericin (Sigma-Aldrich, St. Louis, MO, USA) and puromycin (Sigma-Aldrich, St. Louis, MO, USA) were used as the assay controls for the antibacterial, antifungal and cytotoxicity assay. […] GraphPad Prism 8 software (GraphPad, San Diego, CA, USA) was used for the analysis of the bioactivity to determine the respective IC90 and IC50 values.

[2] = tested on: Clostridium difficile infections; set-up: method as in PMID 25534727, PMID 22315981; details: phase 2 clinical trial, humans; cited from earlier work
[3] = 37 °C, 24 h, OD600, mean ± SD, triplicates, read-out: MIC90 [(μM) mean ± SD]
[4] = Figure 5, read-out: MIC (IC90) / minimal inhibitory concentration (MIC90)

Structure (SMILES): CNC(=O)C[C@@H]1NC(=O)c2csc(n2)-c2ccc(-c3nc(C(=O)O)cs3)nc2-c2csc(n2)-c2csc(n2)[C@H]([C@@H](O)c2ccccc2)NC(=O)CNC(=O)c2nc(sc2COC)[C@H](C(C)C)NC(=O)c2nc1sc2C [Compound 9]
- Antibacterial activity against S. aureus (in words) [1]: displayed activities
- Relative antibacterial activity compared with another compound [1]: at least a three-fold reduction
- MIC90 [1, 3]: 10.3 ± 0.75 µM (≈ 11.6 µg/mL)
- MBC90 (minimal bactericidal concentration) ([1]; Figure 5): 52 µM (≈ 58.5 µg/mL)
- MIC90 [1, 4]: 10.3 µM (≈ 11.6 µg/mL)
- MBC ([1]; OD600, mean ± SD, triplicates): 52 ± 1.41 µM (≈ 58.5 µg/mL)

Structure (SMILES): CNC(=O)CC1NC(=O)c2csc(n2)-c2ccc(-c3nc(C4=NC(C(=O)N5CCCC5C(=O)O)CO4)cs3)nc2-c2csc(n2)-c2csc(n2)C(C(O)c2ccccc2)NC(=O)CNC(=O)c2nc(sc2COC)C(C(C)C)NC(=O)c2nc1sc2C (centres unmarked) [Compound 1, GE2270F1]
- Antibacterial activity against S. aureus (in words) [1]: displayed activities
- Relative antibacterial activity compared with another compound [1]: three-fold more active
- MIC [1, 4]: 2.63 µM (≈ 3.4 µg/mL)
- MIC90 [1, 3]: 2.63 ± 0.12 µM (≈ 3.4 µg/mL)
- MBC90 (minimal bactericidal concentration) ([1]; Figure 5): 18.5 µM (≈ 23.9 µg/mL)
- MIC90 [1, 4]: 2.63 µM (≈ 3.4 µg/mL)
- MBC ([1]; OD600, mean ± SD, triplicates): 18.5 ± 1.34 µM (≈ 23.9 µg/mL)

Structure (SMILES): CNC(=O)CC1NC(=O)c2csc(n2)-c2ccc(-c3nc(C4=NC(C(=O)N5CCCC5C(=O)O)CO4)cs3)nc2-c2csc(n2)-c2csc(n2)C(C(O)c2ccccc2)NC(=O)CNC(=O)c2nc(sc2COC)C(C(C)C)NC(=O)c2csc1n2 (centres unmarked) [Compound 4, GE2270F4]
- Antibacterial activity against S. aureus (in words) [1]: inactive; also recorded: no bioactivity
- MIC [1, 4]: 2 to 11 µM (≈ 2.56 to 14.1 µg/mL)
- MIC90 [1, 3]: > 70 µM
- MBC90 (minimal bactericidal concentration) ([1]; Figure 5): > 70 µM
- MIC90 [1, 4]: > 70 µM
- MBC ([1]; OD600, mean ± SD, triplicates): > 70 µM

Structure (SMILES): CNC(=O)C[C@@H]1NC(=O)c2csc(n2)-c2ccc(-c3nc(C(=O)N[C@@H](CO)C(=O)N4CCC[C@H]4C(N)=O)cs3)nc2-c2csc(n2)-c2csc(n2)[C@H]([C@@H](O)c2ccccc2)NC(=O)CNC(=O)c2nc(sc2COC)[C@H](C(C)C)NC(=O)c2nc1sc2C [Compound 6]
- Antibacterial activity against S. aureus (in words) [1]: displayed activities; also recorded: demonstrated antibacterial activity
- MIC [1, 4]: 2 to 11 µM (≈ 2.62 to 14.4 µg/mL)
- MIC90 [1, 3]: 7.07 ± 0.55 µM (≈ 9.25 µg/mL)
- MIC90 [1, 4]: 7.07 µM (≈ 9.25 µg/mL)

Structure (SMILES): CNC(=O)C[C@@H]1NC(=O)c2csc(n2)-c2ccc(-c3nc(C(=O)N[C@@H](CO)C(=O)N4CCC[C@H]4C(N)=O)cs3)nc2-c2csc(n2)-c2csc(n2)[C@H]([C@@H](O)c2ccccc2)NC(=O)CNC(=O)c2csc(n2)[C@H](C(C)C)NC(=O)c2nc1sc2C [Compound 5]
- Antibacterial activity against S. aureus (in words) [1]: inactive
- MIC [1, 4]: 2 to 11 µM (≈ 2.53 to 13.9 µg/mL)
- MIC90 [1, 3]: > 70 µM
- MBC90 (minimal bactericidal concentration) ([1]; Figure 5): > 70 µM
- MIC90 [1, 4]: > 70 µM
- MBC ([1]; OD600, mean ± SD, triplicates): > 70 µM

Structure (SMILES): CNC(=O)C[C@@H]1NC(=O)c2csc(n2)-c2ccc(-c3nc(N(CCCCC(=O)O)C(=O)O[C@H]4CC[C@H](C(=O)O)CC4)cs3)nc2-c2csc(n2)-c2csc(n2)[C@H]([C@@H](O)c2ccccc2)NC(=O)CNC(=O)c2nc(sc2COC)[C@H](C(C)C)NC(=O)c2nc1sc2C [LFF571]
- Recurrence rates versus vancomycin [2]: higher recurrence rates than conventional antibiotics treatment with vancomycin

Structure (SMILES): CNC(=O)CC1NC(=O)c2csc(n2)-c2ccc(-c3nc(C4=NC(C(=O)N5CCCC5C(=O)O)CO4)cs3)nc2-c2csc(n2)-c2csc(n2)C(C(O)c2ccccc2)NC(=O)CNC(=O)c2csc(n2)C(C(C)C)NC(=O)c2csc1n2 (centres unmarked) [Compound 3, GE2270F3]
- Antibacterial activity against S. aureus (in words) [1]: inactive; also recorded: no bioactivity
- MIC [1, 4]: 2 to 11 µM (≈ 2.47 to 13.6 µg/mL)
- MIC90 [1, 3]: > 70 µM
- MBC90 (minimal bactericidal concentration) ([1]; Figure 5): > 70 µM
- MIC90 [1, 4]: > 70 µM
- MBC ([1]; OD600, mean ± SD, triplicates): > 70 µM

Structure (SMILES): CNC(C)C1CCC(N)C(OC2C(N)CC(N)C(OC3OCC(C)(O)C(NC)C3O)C2O)O1 (centres unmarked) [Gentamicin, gentamicin, reference compound]
- MIC90 [1, 3]: 0.04 ± 0.01 µM (≈ 0.0191 µg/mL)
- MBC90 (minimal bactericidal concentration) ([1]; Figure 5): 0.1 µM (≈ 0.0478 µg/mL)
- MIC90 [1, 4]: 0.04 µM (≈ 0.0191 µg/mL)
- MBC ([1]; OD600, mean ± SD, triplicates): 0.1 ± 0.01 µM (≈ 0.0478 µg/mL)

Structure (SMILES): CNC(=O)C[C@@H]1NC(=O)c2csc(n2)-c2ccc(-c3nc(C(=O)OC)cs3)nc2-c2csc(n2)-c2csc(n2)[C@H]([C@@H](O)c2ccccc2)NC(=O)CNC(=O)c2nc(sc2COC)[C@H](C(C)C)NC(=O)c2nc1sc2C [Compound 8]
- Antibacterial activity against S. aureus (in words) [1]: displayed activities
- MIC [1, 4]: 3.17 µM (≈ 3.61 µg/mL)
- MIC90 [1, 3]: 3.17 ± 0.28 µM (≈ 3.61 µg/mL)
- MBC90 (minimal bactericidal concentration) ([1]; Figure 5): 16.2 µM (≈ 18.5 µg/mL)
- MIC90 [1, 4]: 3.17 µM (≈ 3.61 µg/mL)
- MBC ([1]; OD600, mean ± SD, triplicates): 16.2 ± 1.48 µM (≈ 18.5 µg/mL)

Structure (SMILES): CNC(=O)C[C@@H]1NC(=O)c2csc(n2)-c2ccc(-c3nc(C(=O)OC)cs3)nc2-c2csc(n2)-c2csc(n2)[C@H]([C@@H](O)c2ccccc2)NC(=O)CNC(=O)c2csc(n2)[C@H](C(C)C)NC(=O)c2nc1sc2C [Compound 7]
- Antibacterial activity against S. aureus (in words) [1]: displayed activities
- MIC90 [1, 3]: 4.71 ± 0.37 µM (≈ 5.16 µg/mL)
- MBC90 (minimal bactericidal concentration) ([1]; Figure 5): 12.4 µM (≈ 13.6 µg/mL)
- MIC90 [1, 4]: 4.71 µM (≈ 5.16 µg/mL)
- MBC ([1]; OD600, mean ± SD, triplicates): 12.4 ± 1.06 µM (≈ 13.6 µg/mL)

Structure (SMILES): CNC(=O)CC1NC(=O)c2csc(n2)-c2ccc(-c3nc(C4=NC(C(=O)N5CCCC5C(=O)O)CO4)cs3)nc2-c2csc(n2)-c2csc(n2)C(C(O)c2ccccc2)NC(=O)CNC(=O)c2csc(n2)C(C(C)C)NC(=O)c2nc1sc2C (centres unmarked) [Compound 2, GE2270F2]
- Antibacterial activity against S. aureus (in words) [1]: displayed activities
- MIC90 [1, 3]: 6.94 ± 0.83 µM (≈ 8.66 µg/mL)
- MBC90 (minimal bactericidal concentration) ([1]; Figure 5): 67.9 µM (≈ 84.7 µg/mL)
- MIC90 [1, 4]: 6.94 µM (≈ 8.66 µg/mL)
- MBC ([1]; OD600, mean ± SD, triplicates): 67.9 ± 1.55 µM (≈ 84.7 µg/mL)
